Here are results for two compounds from publication PMC8018465, “Antimicrobial activities of a small molecule compound II-6s against oral streptococci” (Journal of Oral Microbiology, 2021).

The subject of experiment [1] is S. sanguinis. The experiment is described as follows: Bacterial susceptibility assay (microdilution, planktonic). In kind it is cell-based, Streptococcus sanguinis ATCC10556. Particulars: Streptococcus sanguinis, BHI medium. On the procedure: Streptococcus mutans UA159, Streptococcus gordonii DL1 and Streptococcus sanguinis ATCC10556 were obtained from the State Key Laboratory of Oral Diseases (Sichuan University, Chengdu, China). All strains were routinely cultured in brain heart infusion broth (BHI; Difco, Sparks, MD) under anaerobic conditions (5% CO2) at 37°C. For biofilm formation, bacteria were cultured in BHI broth supplied with 1% sucrose (designated BHIS).
The minimum inhibitory concentration (MIC) and minimum bactericidal concentration (MBC) of II-6s against S. mutans, S. gordonii, and S. sanguinis were measured by a microdilution method in BHI as described previously. The bacterial inoculum for the experiment was adjusted to 1 × 10^7 colony-forming units (CFU)/ml for S. mutans, S. gordonii, and S. sanguinis based on the optical density at 600 nm (OD600) versus a CFU/ml graph of each bacterium. Bacterial suspension was added to 96-well microtiter plates which were supplemented with serially diluted concentrations of II-6s ranging from 0.98 to 500 μg/ml. Each plate also included CHX ranging from 0.98 to 500 μg/ml as a positive control, test bacteria and BHI broth as a negative control, BHI broth containing equivalent DMSO (0.5% to 0.001%, ν/ν) as a solvent control and a blank control. […] The lowest concentration of the test solutions that allowed no visible growth on a BHI agar plate was taken as MBC. The experiment was performed in triplicates and repeated at least three times.

The subject of experiment [2] is S. sanguinis biofilm. The experiment in a line: Biofilm susceptibility assay (crystal violet). In kind it is cell-based, Streptococcus sanguinis ATCC10556. Particulars: 24 h; for MBIC: S. sanguinis biofilm formation, at least 90% inhibition; for MBRC: S. sanguinis one-day biofilm, at least 90% reduction. How it is done:
(§1) Streptococcus mutans UA159, Streptococcus gordonii DL1 and Streptococcus sanguinis ATCC10556 were obtained from the State Key Laboratory of Oral Diseases (Sichuan University, Chengdu, China). All strains were routinely cultured in brain heart infusion broth (BHI; Difco, Sparks, MD) under anaerobic conditions (5% CO2) at 37°C. For biofilm formation, bacteria were cultured in BHI broth supplied with 1% sucrose (designated BHIS). The effect of II-6s on S. mutans, S. gordonii, and S. sanguinis biofilm was examined by the microdilution method described previously. S. mutans, S. gordonii, and S. sanguinis (1 × 10^7 CFU/ml) respectively, were cultured in BHIS broth and II-6s (0.98 to 500 μg/ml) in 96-well microtiter plates for 24 h. A parallel study was also performed with BHIS as a negative control. After incubation, the culture supernatant and agent were removed, and each well was gently washed three times with phosphate-buffered saline (PBS), then fixed the adherent biofilm was fixed with methanol for 15 min, and stained with 0.1% (wt/vol) crystal violet (Sigma) for 5 min. The excess crystal violet stain in each well was rinsed away with PBS until the blank control wells were colorless. Finally, 200 μl of 95% ethanol was added to each well to dissolve the crystal violet attached to the biofilm. The plate was shaken at room temperature for 30 min, and the absorbance at 595 nm was recorded. To examine the effects of II-6s on mature biofilm, bacterial suspensions were inoculated into a 96-well microtiter plate containing BHIS and incubated at 37°C for 24 h. After biofilm developed, the supernatant from each well was decanted and planktonic cells were removed by washing with sterile PBS. Fresh BHI broth containing II-6s (0.98 to 500 μg/ml) was added to the one-day biofilm, and the plate was further incubated for 24 h. The control wells contained BHIS broth without II-6s. Similarly, the biofilm was fixed, stained, washed, and quantified as described above. […] The experiment was performed in triplicates and repeated at least three times.

Experiment [3] deals with S. mutans biofilm. The experiment is described as follows: Biofilm susceptibility assay (crystal violet). In kind it is cell-based, Streptococcus mutans UA159. Particulars: 24 h; for MBIC: S. mutans biofilm formation, at least 90% inhibition; for MBRC: S. mutans one-day biofilm, at least 90% reduction. How it is done: as §1
For experiment [4], the system named is 3-species streptococcal biofilms on bovine enamel slabs. The experiment is described as follows: Transverse microradiography of biofilm-induced demineralization on bovine enamel slabs. The class given is cell-based. Particulars: for biofilm-induced demineralization of enamel slabs (lesion depth, mineral loss): vs PBS control, 5 days, 5 min three times per day. From the text: The labial dental crown of bovine incisors was cut into 5 mm × 5 mm × 4 mm by a diamond-coated band saw with continuous water cooling (Struers Minitom; Struers, Copenhagen, Denmark). These bovine specimens were embedded in polymethylmethacrylate and labial enamel surfaces were ground flat with water-cooled carborundum discs of waterproof silicon carbide paper (Struers) of various grits (1,000, 1,200, 2,400, 3,000 and 4,000). Then, enamel blocks were painted with two layers of acid-resistant nail varnish, leaving a 4 × 4 mm window exposed on the labial enamel surface. These specimens were measured by the […] hardness test (Zwick, Ulm, Germany) and those in the range from 314.6 to 382.4 Knoop Hardness Numbers were selected for the demineralization assessment. All the polished samples were sonicated in distilled water for 5 min to remove the residual abrasives and sterilized in an ethylene oxide sterilizer (AnproleneAN 74i, Andersen, Haw River, NC, USA).
An amount of 2 ml bacterial suspension solution contained S. mutans, S. gordonii and S. sanguinis (1 × 10^7 CFU/ml for each bacterium) was added to each well of a 12-well plate with a bovine sample, which was cultured anaerobically in a BHIS medium at 37°C (5% CO2) for 24 h. The specimens were treated with PBS, 0.2% of CHX or different concentrations of II-6s (15.63 to 125 μg/ml) for 5 days (5 min, three times per day). The pH of all experimental solutions was adjusted to 7.0 before treatment. All specimens were washed with PBS and refreshed with BHIS after every exposure. After 5 days of incubation, samples were rinsed with distilled water to remove the remaining biofilms, then cut again and polished with waterproof silicon carbide abrasive papers (800–4,000 grit; Struers, Copenhagen, Denmark) to a thickness around 100 μm. […] Quantitative data of mineral loss and lesion depth were acquired by a calibrated analysis system TMR2006 (Inspektor Research Systems BV, Netherlands). […]

Values after ≈ are worked out from the molar mass of the structure shown.

For the compound `CC(C)(Cc1ccc2ccccc2c1)NC[C@H](O)CNc1cc(C(F)(F)F)cc(C(F)(F)F)c1` [II-6s, (S)-1-((3,5-bis(trifluoromethyl)phenyl)amino)-3-((2-methyl-1-(naphthalen-2-yl)propan-2-yl)amino)propan-2-ol], in experiment [1], the MBC (as a rule, the lowest tested concentration that kills the bacteria rather than only halting them) was 7.81 µg/mL (≈ 16.1 µM) and the MIC (in general, the least concentration at which growth counts as inhibited) is 1.95 µg/mL (≈ 4.02 µM). Further, in experiment [2], the MBIC is 3.91 µg/mL and the MBRC was found to be 3.91 µg/mL. In experiment [3], the MBIC stood at 3.91 µg/mL and the MBRC stood at 62.50 µg/mL. The “inhibitory effect on biofilm-induced demineralization” value in experiment [4] (II-6s 31.25 to 125 μg/ml, vs 0.2% of CHX) is given as “equivalent inhibitory effect on the biofilm-induced demineralization as compared to 0.2% of CHX”. Further, in experiment [4], the “biofilm-induced demineralization of enamel slabs (lesion depth, mineral loss)” value was “significantly reduced the demineralization”.

In experiment [1], `[H]/N=C(\N/C(=N/[H])NCCCCCCNC(=N)NC(=N)Nc1ccc(Cl)cc1)Nc1ccc(Cl)cc1` [CHX, Chlorhexidine digluconate, reference compound] showed a minimal bactericidal concentration (MBC) of 3.91 µg/mL and an MIC of 0.49 µg/mL. Also, in experiment [2], the MBIC is 1.95 µg/mL and the MBRC turned out to be 3.91 µg/mL. In experiment [3], this compound showed an MBIC of 0.98 µg/mL and an MBRC of 62.50 µg/mL. Besides, the “biofilm-induced demineralization of enamel slabs (lesion depth, mineral loss)” value in experiment [4] is recorded as “significantly reduced the demineralization”.
